Laboratory results published in patent publication EP1889831A2, “Diazenedicarboxamides as inhibitors of D-alanine: D-alanine ligase (Ddl)” (University of Ljubljana, priority 2006, dated 2008).
In brackets after ≈: the same amount, converted by molar mass.

Experiments:
DdlB = DdlB (Escherichia coli, UniProt P07862); assay: Determination of inhibitory activity on DdlB (colorimetric malachite green method); type: biochemical, E. coli; conditions: 37 °C, 700 µM D-Ala, 500 µM ATP, 30 min incubation, seven inhibitor concentrations
Description: The D-Ala-adding activity of DdlB ligase was monitored by the detection of orthophosphate generated during the reaction based on the colorimetric malachite green method (Walsh, A. et al. J Bacteriol. 1999, 181: 5395). […] All compounds were soluble in the assay mixture containing 5% DMSO. After 30 min of incubation, 100 µL Biomol® reagent was added. After 5 min, absorbance was read at 650 nm. Residual activity was calculated with respect to a similar assay without inhibitor. IC50 constants were determined by measuring residual activity at seven different inhibitor concentrations and represent the concentration of inhibitors where RA is 50%.

E.coli 1411 = assay: Determination of antimicrobial activity (MIC, broth microdilution); type: cell-based; conditions: IsoSensitest broth, inoculum 10^4 cells per mL, 16 h at 37 °C; unit assumed
Description: (§1) Minimal inhibitory concentrations (MICs) of compounds were determined by broth microdilution in IsoSensitest broth (Oxoid, Basingstoke, UK) using an inoculum of 10^4 cells per mL for E. coli or 10^6 cells per mL for S. aureus. The compounds under investigation were prepared in a 2-fold dilution series in 50% dimethyl sulfoxide (Sigma-Aldrich, Dorset, UK). Microwell plates with 96 wells (Nunc, Fisher Scientific, Loughborough, UK) containing the antimicrobial agent and bacterial suspension were incubated for 16 h at 37 °C in a Spectramax 384 plus microwell plate reader (Molecular Devices, Abingdon, UK), running SOFTmax PRO 3.1.1 software. Optical density readings (600 nm) were taken at 10 min intervals. Plates were shaken for 30 s before each reading. The MIC was taken as the lowest concentration of antimicrobial agent that prevented growth. The invention is further described in connection with the following non-limiting examples: […]

E.coli SM 1411 = assay: as above; type: cell-based; conditions: IsoSensitest broth, inoculum 10^4 cells per mL, 16 h at 37 °C; unit assumed
Description: as §1

S.aureus 8325-4 = assay: as above; type: cell-based; conditions: IsoSensitest broth, inoculum 10^6 cells per mL, 16 h at 37 °C; unit assumed
Description: as §1

| Compound | IC50 (DdlB) | MIC E.coli 1411 (E.coli 1411) | MIC E.coli SM 1411 (E.coli SM 1411) | MIC S.aureus 8325-4 (S.aureus 8325-4) |
| --- | --- | --- | --- | --- |
| O=C(N=NC(=O)NCc1ccccn1)NCCCl | 119 µM | > 256 µg/mL | > 256 µg/mL | > 256 µg/mL |
| O=C(N=NC(=O)NCc1ccccn1)NCc1ccccn1 | 158 µM | > 256 µg/mL | > 256 µg/mL | > 256 µg/mL |
| CC(C)c1ccc(NC(=O)N=NC(=O)NCCCl)cc1 | 49 µM | > 256 µg/mL | > 256 µg/mL | > 256 µg/mL |
| CCC(C)c1ccc(NC(=O)N=NC(=O)NCCCl)cc1 (stereo not shown) | 25 µM | > 256 µg/mL | > 256 µg/mL | > 256 µg/mL |
| O=C(N=NC(=O)NCc1cccnc1)NCc1cccnc1 | 123 µM | > 256 µg/mL | > 256 µg/mL | > 256 µg/mL |
| O=C(N=NC(=O)NCC(Cl)(Cl)Cl)NCC(Cl)(Cl)Cl | 187 µM | > 256 µg/mL | > 256 µg/mL | > 256 µg/mL |
| O=C(/N=N/C(=O)NCCCl)NCCCl | 133 µM | > 256 µg/mL | > 256 µg/mL | > 256 µg/mL |
| CC(C)(C)c1ccc(NC(=O)N=NC(=O)NCCCl)cc1 | 37 µM | > 256 µg/mL | > 256 µg/mL | > 256 µg/mL |
| O=C(N=NC(=O)Nc1ccccc1)NCc1ccccn1 | 111 µM | 64 µg/mL (≈ 226 µM) | 64 µg/mL (≈ 226 µM) | 64 µg/mL (≈ 226 µM) |
| O=C(N=NC(=O)Nc1cccc(Cl)c1)NCc1cccnc1 | 15 µM | 64 µg/mL (≈ 201 µM) | 64 µg/mL (≈ 201 µM) | 256 µg/mL (≈ 806 µM) |
| CC(NC(=O)N=NC(=O)Nc1ccccc1)c1ccccc1 (stereo not shown) | 41 µM | > 256 µg/mL | > 256 µg/mL | > 256 µg/mL |
| O=C(N=NC(=O)Nc1ccccc1)NCc1cccnc1 [drawing 18] | 76 µM | > 256 µg/mL | > 256 µg/mL | > 256 µg/mL |
| O=C(N=NC(=O)Nc1ccccc1)NCc1cccnc1 [drawing 22] | 36 µM | 64 µg/mL (≈ 226 µM) | 64 µg/mL (≈ 226 µM) | 128 µg/mL (≈ 452 µM) |
